Results taken from patent publication US8268889B2, “Treatment of ovarian cancer” (Ramot at Tel-Aviv University Ltd., priority 2006, dated 2012).

How the values were obtained:
Ras = test: Determination of total Ras by Western immunoblotting with pan anti-Ras antibody; type: cell-based, human; conditions: OVCAR-3 cells; for reduction in Ras: 24 h
Experimental: (§1) OVCAR-3 cells were plated at a density of 1.5×10^6 cells in 10-cm plates and grown for 24 h in the presence of 25 or 50 μM FTS. The cells were lysed in 0.5 mL of the Ras-binding domain of Raf-1 (RBD) lysis buffer [Herrmann, C., Martin, G. A. and Wittinghofer, A., J Biol Chem 270:2901-05 (1995)] containing 0.1 mM orthovanadate. Lysates containing 50 μg protein were used to determine total Ras by Western immunoblotting with pan anti-Ras antibody (Ab) and lysates containing 1500 μg protein to determine Ras-GTP by the glutathione S-transferase RBD pull-down assay followed by Western immunoblotting with pan anti-Ras Ab and enhanced chemiluminescence, as previously described [Fridman, M., Maruta, H. and Gonez, J., J Biol Chem 275:30363-71 (2000)]. Mouse anti β-tubulin Ab (AK-15, Sigma) was used at a dilution of 1:500 to confirm equal protein loading.
(§2) In view of the finding that OVCAR-3 cells expressed significant amounts of Ras and active Ras-GTP (FIGS. 1a and b), Applicants examined whether the Ras antagonist FTS would affect the amounts of Ras and Ras-GTP in these cells in the same way as it affects active Ras in other cell lines [Marom, M., supra.; Elad, G., Paz, A., Haklai, R., Marciano, D., Cox, A., Kloog, Y. Biomed Biochim Acta 8:1452:228-42 (1999); Weisz, B., Giehl, K., Gana-Weisz, M. et al. Oncogene 18:2579-88 (1999)]. The cells were grown for 24 h in serum containing medium with or without 25 or 50 μM FTS. Similar conditions were used in earlier studies with other cell lines [Elad, supra.; Weisz, supra.]. […] Quantitative analysis of the immunoblots disclosed that FTS, at concentrations of 25 and 50 μM, caused significant reductions of 5% and 39%, respectively, in Ras and 19% and 41%, respectively, in Ras-GTP (FIG. 1b).

OVCAR-3 cells [1] = test: cells; type: cell-based
Experimental: The human epithelial ovarian cell line OVCAR-3 was obtained from the American Tissue Culture Collection. Cells were routinely grown in Roswell Park Memorial Institute 1640 medium containing 10% fetal calf serum, 0.1 mM nonessential amino acids, and 2 mM L-glutamine, at 37° C. in a humidified atmosphere of 95% air/5% CO2. To examine the effect of FTS on the anchorage-dependent cell growth, cells were plated at a density of 10×10^4 cells per well in 24-well plates to which either 0.1% DMSO (control) or the test concentrations of FTS were added after 24 h. […] Cells were stained with 3-(4,5-dimethylthiosol-2-yl)-2,5-diphenyltetrazolium bromide (MTT, Sigma Chemical Co., St. Louis, Mo.), incubated for 90 min, and dissolved in 0.3 mL of 100% DMSO. The extent of staining was determined spectrophotometrically (A570, A630) using an enzyme-linked immunosorbent assay reader. All assays were carried out in quadruplicate samples and were repeated three times.
Anchorage-dependent cell growth was examined in cells that were grown in the presence of FTS.

Ras-GTP = test: Determination of Ras-GTP by GST-RBD pull-down assay and Western immunoblotting; type: cell-based, human; conditions: OVCAR-3 cells; for reduction in Ras-GTP: 24 h
Experimental: as §1, §2

OVCAR-3 cells [2] = test: cells; type: cell-based; conditions: Homo sapiens, 50 μM FTS alone, read-out: inhibition of cell growth
Experimental: OVCAR-3 cells were plated at a density of 10×10^4 cells per well in 24-well plates and grown for 3 days in the presence of 50 μM FTS. […] This protocol was chosen in order to induce only a small cytotoxic effect, thus enabling a determination of any possible enhanced effect with the Ras inhibitor. The number of live cells was evaluated 3 days later by MTT, as described earlier.
Thus, the greater than additive effect of these two drugs was manifested in an additional decrease of 35% in cell number, which was accounted for by death of the cells.

[3] = FTS alone, concentration not given

CC(C)=CCC/C(C)=C/CC/C(C)=C/CSc1ccccc1C(=O)O [FTS, farnesylthiosalicylic acid] was tested, and the “reduction in Ras” value (Ras; 25 μM FTS) was 5%, the “reduction in Ras” value (Ras; 50 μM FTS) was 39% and the “Ras reduced (summary statement)” value (Ras; [3]) was 40%. For the same compound, the IC50 (OVCAR-3 cells [1]; Homo sapiens, OVCAR-3, read-out: IC50 (concentration causing 50% inhibition of cell growth)) was 54 µM, the “foci formation and growth” value (OVCAR-3 cells [1]; OVCAR-3 cultures, 7 days with 25 or 50 μM FTS) was “strongly inhibited” and the “reduction in Ras-GTP” value (Ras-GTP; 25 μM FTS) was 19%. For the same compound, the “reduction in Ras-GTP” value (Ras-GTP; 50 μM FTS) was 41%, the “Ras-GTP reduced (summary statement)” value (Ras-GTP; [3]) was 40% and the inhibition at 50 µM (OVCAR-3 cells [2]) was 45%.
